Source: PMC7866984, “Molecular Structure, In Vitro Anticancer Study and Molecular Docking of New Phosphate Derivatives of Betulin” (Molecules, 2021)
Read-outs that look alike come from different tables or passages of the source.

Legend:
[1] = test system: amelanotic melanoma (C-32) cells; assay: WST-1 cell viability assay, C-32; format: cell-based, human; settings: WST-1, 72 h
Procedure: (§1) Evaluation of the effect of new betulin derivatives on the viability of the cultured cells was performed using the WST-1(water soluble tetrazolium salt) assay. Betulin 1 and cisplatin were used as the reference compounds.
(§2) The synthesized compounds and references were tested for cytotoxic activity in vitro against human cancer cell lines such as amelanotic melanoma (C-32, ATCC, Rockville, MD, USA), glioblastoma (SNB-19, DSMZ, Braunschweig, Germany), and breast cancer (T47D, and MDA-MB-231, ATCC, Rockville, MD, USA). Cell cultures were maintained using DMEM (Lonza, Basel, Switzerland) supplemented with 10% fetal bovine serum (FBS) (Biological Industries Cromwell, CT, USA) and penicillin (10,000 U/mL) –streptomycin (10 mg/mL) mix (Lonza, Basel, Switzerland).
(§3) Cultures were performed in 96-well plates (Nunc Thermo Fisher Scientific, Waltham, MA, USA). Cells were seeded at 5 × 10^4/well and incubated for 24 h (at 37 °C, 5% CO2, constant humidity). Then, the medium was replaced with a fresh one with the addition of test compounds in the concentration: 25; 12.5; 6.25; 3.12; 1.56; 0.78; 0.39; 0 µg/mL and incubated again for a further 72 h. After this time, the WST-1 test (Roche Molecular Biochemicals, Mannheim, Germany) was performed to assess the metabolic activity of the cells. The principle of the WST-1 colorimetric test is based on the ability of live cells to decompose bright red tetrazole salts of WST-1 to dark red formazan. The reaction is mediated by mitochondrial dehydrogenases and correlates with the number of cells and their metabolic activity. The absorbance was measured at λ = 450 nm with a UVM340 microplate reader (Biogenet, Józefów, Poland). Results were expressed as a mean value of at least three independent experiments performed in triplicate.

[2] = test system: glioblastoma (SNB-19) cells; assay: WST-1 cell viability assay, SNB-19; format: cell-based, human; settings: for IC50: WST-1, 72 h
Procedure: as §1, §2, §3

[3] = test system: breast cancer T47D cells; assay: WST-1 cell viability assay, T47D; format: cell-based, human; settings: for IC50: read-out: IC50 ± SD, T47D
Procedure: as §1, §2, §3

[4] = test system: breast cancer MDA-MB-231 cells; assay: WST-1 cell viability assay, MDA-MB-231; format: cell-based, human; settings: for IC50: read-out: IC50 ± SD, MDA-MB-231
Procedure: as §1, §2, §3

[5] = RP-TLC experimental lipophilicity; format: physicochemical; settings: for RM0 / logPTLC: RP-TLC; for RM0: acetone/Tris buffer pH 7.4, extrapolated to zero acetone; for logPTLC: from RM0 by calibration equation; for -b: slope of regression plot RM = RM0 + bC
Description: Lipophilicity is an important physicochemical parameter related to the biological activity of compounds. This descriptor, contained in Lipiński’s rule of five, concerns the transport of a compound through the biological membrane system and the formation of a compound–receptor complex. To assess the lipophilic nature of triterpenoids 3–5, 6a–6e, and 7a–7e, the reverse phase chromatography (RP-TLC) method was used (chromatographic procedure by RP-TLC is included in the Supplementary Materials). The theoretical characteristics of the chromatographic parameters (RM0, log PTLC) of the tested derivatives were also performed. […]
Chromatographic procedure by RP-TLC
The experimental lipophilicity parameters was determined using reversed-phase thin-layer chromatography (RP-TLC). The stationary phase was an aluminium backed silica gel RP-18 F254 S plates (Merck, Darmstadt, Germany). Chloroform solutions of reference compounds […]
(acetanilide, 4-bromoacetophenone, benzophenone, anthracene, DDT) and triterpenes 3-5, 6a-6e and 7a-7e were spotted on to the plates in the amount of 2 µL. The chromatograms were performed in triplicate for each compound. The chromatographic chambers were filled of mobile phases consisting of a mixture of acetone (POCh, Gliwice, Poland) and aqueous solution of buffer Tris [(tris-hydroxymethyl)aminomethane] (Fluka, Loughborough, 0.2 M, pH 7.4). The percent acetone volume was varied within the range of 90-60%, in 5% increments. The spots of compounds were visualized by spraying the plates with 10% ethanolic solution of sulphuric acid (VI) and heating for 3 min at 110°C [60]]. The RM values were calculated by the equation RM = log (1/Rf-1) on the basis of average Rf values. The RM0 parameters were obtained by extrapolating on the acetone content to zero, according to the equation RM = RM0 + bC (C – the percentage concentration of acetone in the mobile phase, b – the slope of the regression plot).
The experimental lipophilicity as log PTLC for triterpenes 3-5, 6a-6e and 7a-7e was calculated […]
obtained on the correlation between the literature log Plit values and the experimental RM0 values […]
Table S5. The theoretical values of lipophilicity for tested compounds 3-5, 6a-6e and 7a- […]
Table S6. The correlation matrix for theoretically obtained lipophilicity parameters of compounds 3-5, 6a-6e and 7a-7e. […]

[6] = Homo sapiens, C32, 72 h, read-out: IC50 ± SD, C-32
[7] = Homo sapiens, SNB-19, 72 h, read-out: IC50 ± SD, SNB-19
[8] = Homo sapiens, C32, 72 h, Table 5, betulonic/betulinic acid derivatives, read-out: IC50, C-32
[9] = Homo sapiens, SNB-19, 72 h, Table 5, betulonic/betulinic acid derivatives, read-out: IC50, SNB-19

Row | SMILES | RM0 [5] | logPTLC [5] | -b [5] | IC50 ([3]; Homo sapiens, T47D, 72 h) [µM] | melting point [°C] | IC50 [1, 8] [µM] | IC50 [2, 9] [µM] | further results
1 | C=C(C)[C@@H]1CC[C@]2(CO)CC[C@]3(C)[C@H](CC[C@@H]4[C@@]5(C)CC[C@H](O)C(C)(C)[C@@H]5CC[C@]43C)[C@@H]12 [Betulin] |  |  |  |  |  |  |  | IC50 ([1]; Homo sapiens, C32, read-out: IC50 ± SD, C-32): 15.6 ± 1.11 µM; IC50 ([2]; Homo sapiens, SNB-19, read-out: IC50 ± SD, SNB-19): 9.93 ± 0.25 µM; IC50 ([3]; Homo sapiens, T47D, WST-1, 72 h): > 50 µM; IC50 ([4]; Homo sapiens, MDA-MB-231, WST-1, 72 h): 7.76 ± 1.87 µM
2 | N.N.[Cl][Pt][Cl] [Cisplatin, reference compound] |  |  |  |  |  |  |  | IC50 ([1]; read-out: IC50 ± SD, C-32): 4.29 ± 0.65 µM; IC50 ([2]; read-out: IC50 ± SD, SNB-19): 5.29 ± 0.12 µM; IC50 ([3]; WST-1, 72 h): 6.26 ± 1.24 µM; IC50 ([4]; WST-1, 72 h): 5.47 ± 0.05 µM
3 | C=C(CO)[C@@H]1CC[C@]2(COC(C)=O)CC[C@]3(C)C(CCC4[C@@]5(C)CC[C@H](OC(C)=O)C(C)(C)C5CC[C@]43C)C12 (some centres unmarked) [Compound 3, 3,28-Diacetyl-30-hydroxybetulin] | 5.655 | 7.362 | 0.064 |  |  |  |  | 
4 | C=C(COP(=O)(OCC)OCC)[C@@H]1CC[C@]2(COC(C)=O)CC[C@]3(C)C(CCC4[C@@]5(C)CC[C@H](OC(C)=O)C(C)(C)C5CC[C@]43C)C12 (some centres unmarked) [Compound 4, 3,28-Diacetoxy-30-diethoxyphosphoryloxybetulin] | 5.740 | 7.470 | 0.064 | 1.3 ± 0.13 | 61 to 63 |  |  | IC50 [1, 6]: 33.9 ± 1.59 µM; IC50 [2, 7]: 5.01 ± 0.78 µM; IC50 ([4]; Homo sapiens, MDA-MB-231, 72 h): 14.5 ± 1.37 µM
5 | C=C(COP(=O)(OCC)OCC)C1CCC2(CO)CCC3(C)C(CCC4C5(C)CCC(O)C(C)(C)C5CCC43C)C12 (centres unmarked) [Compound 5, 30-Diethoxyphosphoryloxybetulin] | 3.719 | 4.914 | 0.046 | 1.04 ± 0.14 | 194 to 195 |  |  | IC50 [1, 6]: 43.5 ± 2.5 µM; IC50 [2, 7]: 10.9 ± 1.33 µM; IC50 ([4]; Homo sapiens, MDA-MB-231, 72 h): 0.4 ± 0.02 µM
6 | C#CC(=O)OC[C@]12CC[C@@H](C(=C)COP(=O)(OCC)OCC)C1C1CCC3[C@@]4(C)CC[C@H](OC(=O)C#C)C(C)(C)C4CC[C@@]3(C)[C@]1(C)CC2 (some centres unmarked) [Compound 6a, 30-Diethoxyphosphoryloxy-3,28-dipropynoylbetulin] | 6.893 | 8.929 | 0.080 | 9.5 ± 0.74 | 127 to 130 |  |  | 
7 | C#CCOC(=O)OC[C@]12CC[C@@H](C(=C)COP(=O)(OCC)OCC)C1C1CCC3[C@@]4(C)CC[C@H](OC(=O)OCC#C)C(C)(C)C4CC[C@@]3(C)[C@]1(C)CC2 (some centres unmarked) [Compound 6e, 30-Diethoxyphosphoryloxy-3,28-dipropargyloxycarbonyloxybetulin] | 6.490 | 8.419 | 0.076 | > 50 | 129 to 131 |  |  | IC50 [1, 6]: 11.4 ± 0.76 µM; IC50 [2, 7]: 9.23 ± 0.57 µM
8 | C#CCOC(=O)OC[C@]12CC[C@@H](C(=C)COP(=O)(OCC)OCC)C1C1CCC3[C@@]4(C)CC[C@H](O)C(C)(C)C4CC[C@@]3(C)[C@]1(C)CC2 (some centres unmarked) [Compound 7e, 30-Diethoxyphosphoryloxy-28-propargyloxycarbonyloxybetulin] | 5.302 | 6.916 | 0.063 | > 50 | 172 to 174 |  |  | IC50 [1, 6]: 3.97 ± 0.86 µM; IC50 [2, 7]: 1.59 ± 0.09 µM
9 | C=C(COP(=O)(OCC)OCC)[C@@H]1CC[C@]2(C(=O)O)CC[C@]3(C)C(CCC4[C@@]5(C)CCC(=O)C(C)(C)C5CC[C@]43C)C12 (some centres unmarked) [Compound 8] |  |  |  |  |  | 45.7 ± 6.85 | 45.8 ± 5.27 | activity against T47D (in words) [3]: no activity; activity against MDA-MB-231 (in words) [4]: no activity
10 | C=C(COP(=O)(OCC)OCC)[C@@H]1CC[C@]2(C(=O)O)CC[C@]3(C)C(CCC4[C@@]5(C)CCC(O)C(C)(C)C5CC[C@]43C)C12 (some centres unmarked) [Compound 9] |  |  |  |  |  | > 50 | 5.98 ± 0.43 | IC50 fold higher than 30-phosphonate derivative of 3-acetylbetulinic acid ([2]; SNB-19): more than 4.5 fold; activity against T47D (in words) [3]: no activity; activity against MDA-MB-231 (in words) [4]: no activity
11 | CCOP(=O)(C=C(C)C1CCC2(C(=O)O)CCC3(C)C(CCC4C5(C)CCC(=O)C(C)(C)C5CCC43C)C12)OCC (centres unmarked) [R=29-P(O)(OC2H5)2, R1=O=, reference compound] |  |  |  |  |  | 45.5 ± 3.72 | 1.64 ± 0.18 | 
12 | CCOP(=O)(C=C(C)C1CCC2(C(=O)O)CCC3(C)C(CCC4C5(C)CCC(O)C(C)(C)C5CCC43C)C12)OCC (centres unmarked) [R=29-P(O)(OC2H5)2, R1=OH, reference compound] |  |  |  |  |  | 47.5 ± 2.96 | 7.67 ± 1.57 | 
13 | C=C(CP(=O)(OCC)OCC)[C@@H]1CC[C@]2(C(=O)O)CC[C@]3(C)C(CCC4[C@@]5(C)CCC(OC(C)=O)C(C)(C)C5CC[C@]43C)C12 (some centres unmarked) [R=30-P(O)(OC2H5)2, R1=CH3C(O)O, reference compound] |  |  |  |  |  | 30.7 ± 2.17 | 1.29 ± 0.15 | 
14 | C=C(CP(=O)(OCC)OCC)[C@@H]1CC[C@]2(C(=O)O)CC[C@]3(C)C(CCC4[C@@]5(C)CCC(O)C(C)(C)C5CC[C@]43C)C12 (some centres unmarked) [R=30-P(O)(OC2H5)2, R1=OH, reference compound] |  |  |  |  |  | > 50 | > 50 | 
15 | C=C(C)[C@@H]1CC[C@]2(C(=O)O)CC[C@]3(C)[C@H](CC[C@@H]4[C@@]5(C)CC[C@H](O)C(C)(C)[C@@H]5CC[C@]43C)[C@@H]12 [betulinic acid, reference compound] |  |  |  |  |  |  |  | IC50 ([1]; Homo sapiens, C32, Table 5, betulonic/betulinic acid derivatives, read-out: IC50, C-32): 8.63 ± 0.9 µM; IC50 ([2]; Homo sapiens, SNB-19, Table 5, betulonic/betulinic acid derivatives, read-out: IC50, SNB-19): 20.1 ± 1.26 µM
